# Source: patent US20100216767A1, “QUINAZOLINES FOR PDK1 INHIBITION” (priority 2006, published 2010)
# Target: T1, PDK1 kinase (Homo sapiens, UniProt O15530)
# T1 sequence (O15530 1-556): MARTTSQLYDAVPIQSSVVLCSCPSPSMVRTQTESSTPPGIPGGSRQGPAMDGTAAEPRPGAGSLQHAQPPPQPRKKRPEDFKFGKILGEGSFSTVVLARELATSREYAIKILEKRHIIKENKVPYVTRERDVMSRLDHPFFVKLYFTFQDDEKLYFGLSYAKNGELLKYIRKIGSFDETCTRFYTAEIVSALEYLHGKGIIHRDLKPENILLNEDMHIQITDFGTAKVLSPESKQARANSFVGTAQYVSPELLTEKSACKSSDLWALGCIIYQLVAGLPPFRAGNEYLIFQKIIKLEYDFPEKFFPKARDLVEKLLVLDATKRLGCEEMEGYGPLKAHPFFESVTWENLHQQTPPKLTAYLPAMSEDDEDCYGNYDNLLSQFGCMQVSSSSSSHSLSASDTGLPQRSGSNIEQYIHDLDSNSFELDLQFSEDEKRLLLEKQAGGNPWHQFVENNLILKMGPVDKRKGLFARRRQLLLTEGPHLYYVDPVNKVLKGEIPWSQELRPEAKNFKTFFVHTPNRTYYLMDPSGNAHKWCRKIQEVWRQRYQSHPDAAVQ
# Experiment: PDK1 Kinase Alpha Screen Assay
# Assay type: biochemical
# Settings: Table 1; 10 μM ATP, 50 nM PDK1-4 peptide
# Method: Reagents/Concentrations: The PDK1-4 peptide substrate, biotin-[…]-NH2, (SEQ ID NO: 1), was purchased from the Tufts University Core Facility. The final concentration of PDK1-4 peptide substrate was 50 nM. The ATP substrate (adenosine-[…] triphosphate) was purchased from Roche Diagnostics. The final concentration of ATP substrate was 10 μM. Phospho-(Ser/Thr) PKA substrate antibody was purchased from Cell Signaling Technology. The final concentration of antibody was 0.3 mg/mL. The Alpha Screen Protein A detection kit containing donor and acceptor beads was purchased from PerkinElmer Life Sciences. The final concentration of both donor and acceptor beads was 25 μg/mL. Alpha Screen was used for detection. The biotinylated-PDK1-4 peptide was phosphorylated by PDK1 kinase using the ATP substrate. The biotinylated-PDK1-4 peptide substrate was bound to the streptavidin coated donor bead. The antibody was bound to the protein A coated acceptor bead. The antibody bound to the phosphorylated form of the biotinylated PDK-1 peptide substrate, bringing the donor and acceptor beads into close proximity. Laser irradiation of the donor bead at 680 nm generated a flow of short-lived singlet oxygen molecules. When the donor and acceptor beads were in close proximity, the reactive oxygen generated by the irradiation of the donor beads initiated a luminescence/fluorescence cascade in the acceptor beads. This process led to a highly amplified signal with output in the 530-620 nm range. Assays were carried out in 50 mM Tris, pH=7.5, 10 mM MgCl2, 0.1% BSA, 0.01% Tween-20, 2 mM dithiolthreitol, 2.5% dimethyl sulfoxide. Reactions were stopped by adding 50 mM Tris, pH=7.5, 90 mM EDTA, 0.1% BSA, 0.01% Tween-20.
# Procedure: To 10 μl, of PDK1-4 peptide, […] of test compound in dimethyl sulfoxide was added. PDK1 kinase and ATP were mixed, and 10 μL of the PDK1 kinase/ATP mix was added to start the reaction. The reaction was allowed to proceed for 3-18 hours. The reactions were then stopped by adding 10 μL of the EDTA-containing stop buffer. Beads were mixed with antibody, and 25 μL of the bead/antibody mix was then added to the stopped reactions. Plates were incubated at room temperature overnight to allow for detection development before being read. The assay was run in a 384-well format plate.
row,IC50,Structure (SMILES)
1,< 5 µM,"C#Cc1cc2cnc(Nc3ccc(C(=O)N4CCOCC4)c(Cl)c3)nc2cc1OC [Example 120, (2-chloro-4-(6-ethynyl-7-methoxyquinazolin-2-ylamino)phenyl)-(morpholino)methanone]"
2,< 5 µM,"C#Cc1ccc2nc(Nc3ccc(C(N)=O)cc3)ncc2c1 [Example 58, 4-(6-ethynylquinazolin-2-ylamino)benzamide]"
3,< 5 µM,"C#Cc1ccc2nc(Nc3cccc(N4CCOCC4)c3)ncc2c1Cl [Example 121, 5-chloro-6-ethynyl-N-(3-morpholinophenyl)-quinazolin-2-amine]"
4,< 5 µM,"CC#Cc1ccc2nc(Nc3cc(CN(C)C)cc(NC(C)=O)c3)ncc2c1 [Example 148, N-(3-((dimethylamino)-methyl)-5-(6-(prop-1-ynyl)quinazolin-2-ylamino)phenyl)acetamide]"
5,< 5 µM,"C#Cc1cc2cnc(Nc3cc(CN(C)C)cc(NC(C)=O)c3)nc2cc1OC [Example 85, N-(3-((dimethylamino)methyl)-5-(6-ethynyl-7-methoxy-quinazolin-2-ylamino)-phenyl)acetamide]"
6,< 5 µM,"C#Cc1cc(OC)c2nc(Nc3ccc(N4CCOCC4)cc3)ncc2c1 [Example 70, 6-ethynyl-8-methoxy-N-(4-morpholinophenyl)-quinazolin-2-amine]"
7,< 5 µM,"C#Cc1ccc2nc(Nc3cc(CN4CCCC4)cc(NC(C)=O)c3)ncc2c1 [Example 127, N-(3-(6-ethynylquinazolin-2-ylamino)-5-(pyrrolidin-1-ylmethyl)phenyl)-acetamide]"
8,10 to 25 µM,"COc1cc(C#CC(C)(C)N)cc2cnc(Nc3ccc(S(N)(=O)=O)cc3)nc12 [Example 66, 4-(6-(3-amino-3-methylbut-1-ynyl)-8-methoxyquinazolin-2-ylamino)benzenesulfonamide]"
9,< 5 µM,"COc1cc(C#N)cc2cnc(Nc3ccc(S(N)(=O)=O)cc3)nc12 [Example 4, 4-(6-cyano-8-methoxyquinazolin-2-ylamino)benzene-sulfonamide]"
10,< 5 µM,"NC(=O)c1ccc(Nc2ncc3cc(-c4nccs4)ccc3n2)cc1 [Example 75, 4-(6-(thiazol-2-yl)-quinazolin-2-ylamino)-benzamide]"
11,< 5 µM,"C#Cc1ccc2nc(Nc3ccc(C(=O)N4CCOCC4)cc3)ncc2c1 [Example 81, (4-(6-ethynylquinazolin-2-ylamino)phenyl)-(morpholino)methanone]"
12,< 5 µM,"c1csc(-c2ccc3nc(Nc4ccc(N5CCOCC5)cc4)ncc3c2)n1 [Example 100, N-(4-morpholinophenyl)-6-(thiazol-2-yl)quinazolin-2-amine]"
13,< 5 µM,"Cn1cc(-c2ccc3nc(Nc4ccc(S(N)(=O)=O)cc4)ncc3c2)cn1 [Example 56, 4-(6-(1-methyl-1H-pyrazol-4-yl)quinazolin-2-ylamino)benzene-sulfonamide]"
14,< 5 µM,"CN1CCN(c2cc(-c3ccc4nc(Nc5ccc(S(N)(=O)=O)cc5)ncc4c3)ccn2)CC1 [Example 45, 4-(6-(2-(4-methyl-piperazin-1-yl)pyridin-4-yl)quinazolin-2-ylamino)-benzenesulfonamide]"

# More lines, now with the values behind:
row,Structure (SMILES),IC50
1,"COc1cc2cnc(Nc3ccc(S(N)(=O)=O)cc3)nc2cc1OC [Example 35, 4-(6,7-Dimethoxyquinazolin-2-ylamino)benzenesulfonamide]",< 5 µM
2,"COc1cc(-c2nccs2)cc2cnc(Nc3ccc(S(N)(=O)=O)cc3)nc12 [Example 63, 4-(8-methoxy-6-(thiazol-2-yl)quinazolin-2-ylamino)-benzenesulfonamide]",< 5 µM
3,"CC(C)NC(=O)c1ccc(Nc2ncc3cc(C#N)ccc3n2)cc1 [Example 13, 4-(6-Cyanoquinazolin-2-ylamino)-N-Isopropylbenzamide]",< 5 µM
4,"COc1cc(Br)c(Cl)c2cnc(Nc3ccc(C(=O)N4CCOCC4)cc3)nc12 [Example 118, (4-(6-bromo-5-chloro-8-methoxyquinazolin-2-ylamino)phenyl)-(morpholino)-methanone]",< 5 µM
5,"C#Cc1cc2cnc(Nc3cccc(-c4nnn[nH]4)c3)nc2cc1OC [Example 98, N-(3-(1H-tetrazol-5-yl)phenyl)-6-ethynyl-7-methoxyquinazolin-2-amine]",< 5 µM
6,"COc1ccc2nc(Nc3cc(CN(C)C)cc(NC(C)=O)c3)ncc2c1 [Example 109, N-(3-((dimethylamino)-methyl)-5-(6-methoxy-quinazolin-2-ylamino)-phenyl)acetamide]",< 5 µM
7,"CCc1cc(OC)c2nc(Nc3ccc(S(N)(=O)=O)cc3)ncc2c1 [Example 3, 4-(6-Ethyl-8-methoxyquinazolin-2-ylamino)benzenesulfonamide]",< 5 µM
8,"C#Cc1cc2cnc(Nc3ccc(N4CCOCC4)cc3)nc2cc1OC [Example 69, 6-ethynyl-7-methoxy-N-(4-morpholinophenyl)-quinazolin-2-amine]",< 5 µM
9,"C#Cc1ccc2nc(Nc3cc(NC(C)=O)cc(-c4ccncc4)c3)ncc2c1 [Example 146, N-(3-(6-ethynylquinazolin-2-ylamino)-5-(pyridin-4-yl)phenyl)acetamide]",< 5 µM
10,"CC(=O)Nc1cc(Nc2ncc3cc(Br)ccc3n2)cc(-c2cn[nH]c2)c1 [Example 153, N-(3-(6-bromoquinazolin-2-ylamino)-5-(1H-pyrazol-4-yl)phenyl)acetamide]",< 5 µM
11,"CC(=O)Nc1cc(CN2CCOCC2)cc(Nc2ncc3cc(Br)ccc3n2)c1 [Example 145, N-(3-(6-bromoquinazolin-2-ylamino)-5-(morpholino-methyl)phenyl)acetamide]",< 5 µM
12,"C#Cc1ccc2nc(Nc3cc(-c4ccncc4F)cc(N4CCOCC4)c3)ncc2c1 [Example 160, 6-ethynyl-N-(3-(3-fluoro-pyridin-4-yl)-5-morpholinophenyl)-quinazolin-2-amine]",< 5 µM
13,"C#Cc1cc(OC)c2nc(Nc3ccc(N4CCOCC4)cc3)ncc2c1Cl [Example 101, 5-chloro-6-ethynyl-8-methoxy-N-(4-morpholinophenyl)-quinazolin-2-amine]",< 5 µM
14,"NS(=O)(=O)c1ccc(Nc2ncc3cc(C(=O)NC4CC4)ccc3n2)cc1 [Example 43, N-cyclopropyl-2-(4-sulfamoylphenylamino)-quinazoline-6-carboxamide]",< 5 µM
15,"COc1cc(Br)cc2cnc(Nc3ccc(S(N)(=O)=O)cc3)nc12 [Example 1, 4-(6-Bromo-8-methoxyquinazolin-2-ylamino)benzenesulfonamide]",< 5 µM
16,"C#Cc1ccc2nc(Nc3ccc(C(=O)N4CCOCC4)cc3)ncc2c1Cl [Example 22, (4-(5-Chloro-6-ethynylquinazolin-2-ylamino)phenyl)(morpholino) methanone]",< 5 µM
17,"NS(=O)(=O)c1ccc(Nc2ncc3cc(C(=O)O)ccc3n2)cc1 [Example 19, Methyl 2-(4-sulfamoylphenylamimo)quinazolin-6-carboxylic acid]",< 5 µM
18,"C#Cc1cc(Cl)c2nc(Nc3cc(CN4CCOCC4)cc(NC(C)=O)c3)ncc2c1 [Example 129, N-(3-(8-chloro-6-ethynyl-quinazolin-2-ylamino)-5-(morpholinomethyl)-phenyl)-acetamide]",< 5 µM
19,"CC(=O)Nc1cc(CN(C)C)cc(Nc2ncc3cc(Br)cc(Cl)c3n2)c1 [Example 6, N-(3-(6-Bromo-8-chloroquinazolin-2-ylamino)-5-((dimethylamino)-methyl)phenyl)acetamide]",< 5 µM
20,"C#Cc1ccc2nc(Nc3cc(-c4cccnc4)cc(N4CCOCC4)c3)ncc2c1 [Example 159, 6-ethynyl-N-(3-morpholino-5-(pyridin-3-yl)phenyl)quinazolin-2-amine]",< 5 µM
21,"CC(=O)Nc1cc(CN2CCCC2)cc(Nc2ncc3cc(-c4nccs4)ccc3n2)c1 [Example 126, N-(3-(pyrrolidin-1-ylmethyl)-5-(6-(thiazol-2-yl)quinazolin-2-ylamino)-phenyl)acetamide]",< 5 µM
